Measured values: ChEMBL document CHEMBL4270512, “Harnessing pyrrolidine iminosugars into dimeric structures for the rapid discovery of divalent glycosidase inhibitors” (Eur J Med Chem, 2018)
Calls of active or inactive are those of the source. The calls are words filed in the database; no cut-off is given here.

Columns and labels:
[1] = Uncompetitive inhibition of bovine kidney alpha-fucosidase using p-nitrophenyl glycopyranoside as substrate preincubated for 5 mins followed by substrate addition and measured after 20 mins by Lineweaver-Burk plot analysis; set-up: species or system Bos taurus
[2] = Competitive inhibition of bovine kidney alpha-fucosidase using p-nitrophenyl glycopyranoside as substrate preincubated for 5 mins followed by substrate addition and measured after 20 mins by Lineweaver-Burk plot analysis; set-up: species or system Bos taurus
[3] = molecular target: T1, Beta-galactosidase (Bos taurus) (UniProt Q58D55); assay: Inhibition of bovine liver beta-galactosidase at 200 uM using p-nitrophenyl glycopyranoside as substrate preincubated for 5 mins followed by substrate addition and measured after 20 mins by visible absorption spectroscopic analysis relative to control
T1 sequence (whole entry): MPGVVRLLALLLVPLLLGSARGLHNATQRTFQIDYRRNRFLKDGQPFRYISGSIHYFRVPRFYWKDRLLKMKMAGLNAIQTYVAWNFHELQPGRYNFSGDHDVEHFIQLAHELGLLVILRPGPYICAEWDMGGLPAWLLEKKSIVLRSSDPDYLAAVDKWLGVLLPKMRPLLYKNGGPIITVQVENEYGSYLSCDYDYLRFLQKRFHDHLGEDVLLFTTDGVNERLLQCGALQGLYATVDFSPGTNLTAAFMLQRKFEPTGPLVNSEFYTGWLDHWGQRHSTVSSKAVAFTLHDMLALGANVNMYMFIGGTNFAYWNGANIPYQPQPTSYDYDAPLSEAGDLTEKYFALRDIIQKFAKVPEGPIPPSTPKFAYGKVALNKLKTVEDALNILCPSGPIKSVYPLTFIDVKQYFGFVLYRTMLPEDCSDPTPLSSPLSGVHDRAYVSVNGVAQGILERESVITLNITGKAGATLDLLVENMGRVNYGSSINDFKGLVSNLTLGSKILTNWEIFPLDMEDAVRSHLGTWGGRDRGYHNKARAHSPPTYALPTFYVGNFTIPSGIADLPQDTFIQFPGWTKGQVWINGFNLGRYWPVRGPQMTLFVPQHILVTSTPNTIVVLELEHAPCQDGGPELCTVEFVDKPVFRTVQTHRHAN

[4] = Uncompetitive inhibition of human alpha-fucosidase using p-nitrophenyl glycopyranoside as substrate preincubated for 5 mins followed by substrate addition and measured after 20 mins by Lineweaver-Burk plot analysis
[5] = molecular target: T1, Beta-galactosidase (Bos taurus); assay: Inhibition of bovine liver beta-galactosidase at 0.1 mM using p-nitrophenyl glycopyranoside as substrate preincubated for 5 mins followed by substrate addition and measured after 20 mins by visible absorption spectroscopic analysis
[6] = Inhibition of human alpha-fucosidase using p-nitrophenyl glycopyranoside as substrate preincubated for 5 mins followed by substrate addition and measured after 20 mins by visible absorption spectroscopic analysis
[7] = Inhibition of bovine kidney alpha-fucosidase using p-nitrophenyl glycopyranoside as substrate preincubated for 5 mins followed by substrate addition and measured after 20 mins by visible absorption spectroscopic analysis; set-up: species or system Bos taurus
[8] = Competitive inhibition of human alpha-fucosidase using p-nitrophenyl glycopyranoside as substrate preincubated for 5 mins followed by substrate addition and measured after 20 mins by Lineweaver-Burk plot analysis
[9] = molecular target: T2, Alpha-mannosidase (Canavalia ensiformis) (UniProt C0HJB3); assay: Inhibition of jack beans alpha-mannosidase at 0.1 mM using p-nitrophenyl glycopyranoside as substrate preincubated for 5 mins followed by substrate addition and measured after 20 mins by visible absorption spectroscopic analysis
T2 sequence (whole entry): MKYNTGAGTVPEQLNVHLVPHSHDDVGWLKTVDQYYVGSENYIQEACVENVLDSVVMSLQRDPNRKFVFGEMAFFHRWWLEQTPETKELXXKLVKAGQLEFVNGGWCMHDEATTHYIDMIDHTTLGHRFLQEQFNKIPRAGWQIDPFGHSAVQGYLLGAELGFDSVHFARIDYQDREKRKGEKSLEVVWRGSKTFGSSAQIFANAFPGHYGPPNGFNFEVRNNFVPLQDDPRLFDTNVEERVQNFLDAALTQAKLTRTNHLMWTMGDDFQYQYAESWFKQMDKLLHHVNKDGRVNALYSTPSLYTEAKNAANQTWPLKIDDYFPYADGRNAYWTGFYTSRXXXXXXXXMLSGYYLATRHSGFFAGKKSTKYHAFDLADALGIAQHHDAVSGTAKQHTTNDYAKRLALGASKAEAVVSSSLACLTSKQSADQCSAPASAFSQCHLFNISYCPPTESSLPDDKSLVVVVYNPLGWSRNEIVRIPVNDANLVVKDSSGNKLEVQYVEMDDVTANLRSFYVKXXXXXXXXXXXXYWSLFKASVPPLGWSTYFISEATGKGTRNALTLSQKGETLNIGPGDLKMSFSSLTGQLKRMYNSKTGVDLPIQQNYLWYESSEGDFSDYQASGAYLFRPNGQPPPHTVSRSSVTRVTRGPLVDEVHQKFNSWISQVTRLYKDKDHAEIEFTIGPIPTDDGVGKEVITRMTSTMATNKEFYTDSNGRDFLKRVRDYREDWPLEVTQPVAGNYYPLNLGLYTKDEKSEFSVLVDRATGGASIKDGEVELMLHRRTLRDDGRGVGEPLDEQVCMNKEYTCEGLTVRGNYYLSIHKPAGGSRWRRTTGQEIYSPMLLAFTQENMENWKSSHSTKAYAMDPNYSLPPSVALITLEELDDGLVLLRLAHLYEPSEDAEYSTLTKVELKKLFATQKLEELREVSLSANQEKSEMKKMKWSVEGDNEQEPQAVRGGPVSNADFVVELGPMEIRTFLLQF

Canavalia ensiformis = assay: Inhibition of jack beans beta-N-acetylglucosaminidase at 0.1 mM using p-nitrophenyl glycopyranoside as substrate preincubated for 5 mins followed by substrate addition and measured after 20 mins by visible absorption spectroscopic analysis
[10] = molecular target: Alpha-galactosidase (Coffea arabica) (UniProt Q42656); assay: Inhibition of coffee beans alpha-galactosidase at 0.1 mM using p-nitrophenyl glycopyranoside as substrate preincubated for 5 mins followed by substrate addition and measured after 20 mins by visible absorption spectroscopic analysis
Aspergillus niger = assay: Inhibition of Aspergillus niger amyloglucosidase at 0.1 mM using p-nitrophenyl glycopyranoside as substrate preincubated for 5 mins followed by substrate addition and measured after 20 mins by visible absorption spectroscopic analysis
Saccharomyces cerevisiae = assay: Inhibition of Saccharomyces cerevisiae alpha-glucosidase at 0.1 mM using p-nitrophenyl glycopyranoside as substrate preincubated for 5 mins followed by substrate addition and measured after 20 mins by visible absorption spectroscopic analysis
Prunus dulcis = assay: Inhibition of almond beta-glucosidase at 0.1 mM using p-nitrophenyl glycopyranoside as substrate preincubated for 5 mins followed by substrate addition and measured after 20 mins by visible absorption spectroscopic analysis
Oryza sativa = assay: Inhibition of rice beta-glucosidase at 0.1 mM using p-nitrophenyl glycopyranoside as substrate preincubated for 5 mins followed by substrate addition and measured after 20 mins by visible absorption spectroscopic analysis
Cornu aspersum = assay: Inhibition of snail beta-mannosidase at 0.1 mM using p-nitrophenyl glycopyranoside as substrate preincubated for 5 mins followed by substrate addition and measured after 20 mins by visible absorption spectroscopic analysis
Bos taurus [11] = species on record: Bos taurus; assay: Inhibition of bovine kidney alpha-fucosidase at 0.120 uM using p-nitrophenyl glycopyranoside as substrate preincubated for 5 mins followed by substrate addition and measured after 20 mins by visible absorption spectroscopic analysis
Homo sapiens = species on record: Homo sapiens; assay: Inhibition of human alpha-fucosidase at 0.1 mM using p-nitrophenyl glycopyranoside as substrate preincubated for 5 mins followed by substrate addition and measured after 20 mins by visible absorption spectroscopic analysis
Beta-galactosidase [12] = molecular target: T3, Beta-galactosidase (Bos taurus, UniProt Q58D55); assay: Inhibition of bovine liver beta-galactosidase using p-nitrophenyl glycopyranoside as substrate preincubated for 5 mins followed by substrate addition and measured after 20 mins by visible absorption spectroscopic analysis
T3 sequence (Q58D55 whole entry): T1 sequence (whole entry)

Bos taurus [13] = species on record: Bos taurus; assay: Inhibition of bovine kidney alpha-fucosidase at 0.1 mM using p-nitrophenyl glycopyranoside as substrate preincubated for 5 mins followed by substrate addition and measured after 20 mins by visible absorption spectroscopic analysis relative to control
Beta-galactosidase [14] = molecular target: T3, Beta-galactosidase; assay: Competitive inhibition of bovine liver beta-galactosidase using p-nitrophenyl glycopyranoside as substrate preincubated for 5 mins followed by substrate addition and measured after 20 mins by Lineweaver-Burk plot analysis

Sequence of Alpha-galactosidase (Coffea arabica) (Q42656 16-378 limits assumed): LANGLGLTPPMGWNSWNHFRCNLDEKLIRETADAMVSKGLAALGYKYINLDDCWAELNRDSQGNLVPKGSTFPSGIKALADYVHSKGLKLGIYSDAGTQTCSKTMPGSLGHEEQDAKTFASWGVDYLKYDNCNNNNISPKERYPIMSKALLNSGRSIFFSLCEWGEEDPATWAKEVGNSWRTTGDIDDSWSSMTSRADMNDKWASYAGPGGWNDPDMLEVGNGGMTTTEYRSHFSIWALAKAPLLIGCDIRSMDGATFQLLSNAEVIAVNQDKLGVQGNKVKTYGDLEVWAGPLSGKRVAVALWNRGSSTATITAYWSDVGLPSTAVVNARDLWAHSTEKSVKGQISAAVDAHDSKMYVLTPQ

Structure (SMILES) | Ki [1] [nM] | Ki [2] [nM] | Ki [4] [nM] | inhibition [5] | IC50 [6] [nM] | IC50 [7] [nM] | Ki [8] [nM] | inhibition [9] | inhibition (Canavalia ensiformis) | inhibition [10] | inhibition (Aspergillus niger) | inhibition (Saccharomyces cerevisiae) | inhibition (Prunus dulcis) | inhibition (Oryza sativa) | inhibition (Cornu aspersum) | other results
C#C[C@H]1[C@H](O)[C@H](O)[C@H](C)N1C(=O)OC(C)(C)C | 1 | 0.2 |  |  |  |  |  |  |  |  |  |  |  |  |  | 
Cc1oc([C@H]2NC[C@@H](O)[C@H]2O)cc1C(=O)NCc1cn(CCOCCOCCOCCOCCOCCn2cc(CNC(=O)c3cc([C@H]4NC[C@@H](O)[C@H]4O)oc3C)nn2)nn1 |  |  |  |  |  |  |  |  |  |  |  |  |  |  |  | inhibition [3]: < 50%
C[C@@H]1N[C@@H](c2cn(CCCCCCn3cc([C@@H]4N[C@@H](C)[C@@H](O)[C@H]4O)nn3)nn2)[C@H](O)[C@@H]1O | 240 | 15 | 7100 | inactive | 6800 | 47 | 2500 | inactive | inactive | inactive | inactive | inactive | inactive | inactive | inactive | 
C[C@@H]1N[C@@H](c2cn(CCOCCOCCOCCn3cc([C@@H]4N[C@@H](C)[C@@H](O)[C@H]4O)nn3)nn2)[C@H](O)[C@@H]1O | 132 | 43 | 11100 | inactive | 26000 | 120 | 4800 | inactive | inactive | inactive | inactive | inactive | inactive | inactive | inactive | 
C[C@@H]1N[C@@H](c2cn(CCCCCCCCCCCCn3cc([C@@H]4N[C@@H](C)[C@@H](O)[C@H]4O)nn3)nn2)[C@H](O)[C@@H]1O |  |  |  |  |  |  |  |  |  |  |  |  |  |  |  | inhibition (Bos taurus [11]): Active
Cc1oc([C@H]2NC[C@@H](O)[C@H]2O)cc1C(=O)NCc1cn(CCCCCCCCCCCCn2cc(CNC(=O)c3cc([C@H]4NC[C@@H](O)[C@H]4O)oc3C)nn2)nn1 |  |  |  |  |  |  |  | inactive | inactive | inactive | inactive | inactive | inactive | inactive | inactive | inhibition (Homo sapiens): inactive; IC50 (Beta-galactosidase [12]): 9600 nM; inhibition [3]: 88%; inhibition (Bos taurus [13]): 32%; Ki (Beta-galactosidase [14]): 5800 nM
C[C@@H]1N[C@@H](c2cn(CCOCCOCc3cn(-c4cccc(S(=O)(=O)c5cccc(-n6cc(COCCOCCn7cc([C@@H]8N[C@@H](C)[C@@H](O)[C@H]8O)nn7)nn6)c5)c4)nn3)nn2)[C@H](O)[C@@H]1O |  |  |  |  |  |  |  |  |  |  |  |  |  |  |  | inhibition (Bos taurus [11]): Active
C[C@@H]1N[C@@H](c2cn(CCOCCOCc3cn(CCCCCCCCCCCCn4cc(COCCOCCn5cc([C@@H]6N[C@@H](C)[C@@H](O)[C@H]6O)nn5)nn4)nn3)nn2)[C@H](O)[C@@H]1O |  |  |  |  |  |  |  |  |  |  |  |  |  |  |  | inhibition (Bos taurus [11]): Active
C[C@@H]1N[C@@H](c2c[nH]nn2)[C@H](O)[C@@H]1O | 4200 | 300 | 34000 | inactive | 70000 | 1000 | 18000 | inactive | inactive | inactive | inactive | inactive | inactive | inactive | inactive | 
C[C@@H]1N[C@@H](c2cn(-c3ccc(S(=O)(=O)c4ccc(N=[N+]=[N-])cc4)cc3)nn2)[C@H](O)[C@@H]1O | 1 | 0.2 | 580 | inactive | 540 | 1.1 | 73 | inactive | inactive | inactive | inactive | inactive | inactive | inactive | inactive | 
Cc1oc([C@H]2NC[C@@H](O)[C@H]2O)cc1C(=O)NCc1cn(CCOCCOCCOCCn2cc(CNC(=O)c3cc([C@H]4NC[C@@H](O)[C@H]4O)oc3C)nn2)nn1 |  |  |  |  |  |  |  |  |  |  |  |  |  |  |  | inhibition [3]: < 50%
C[C@@H]1N[C@@H](c2cn(-c3ccccc3)nn2)[C@H](O)[C@@H]1O | 66 | 6.8 | 5500 | inactive | 4200 | 19 | 860 | inactive | inactive | inactive | inactive | inactive | inactive | inactive | inactive | 
